Source: PMC9951879, “Synthesis of New Shogaol Analogues as NRF2 Activators and Evaluation of Their Anti-Inflammatory Activity, Modes of Action and Metabolic Stability” (Antioxidants, 2023)
Like-named read-outs stand apart in the source and are kept apart here.

Assays:
IL-6 = IL-6 ELISA in LPSEc-stimulated BV-2 cells; format: cell-based, mouse; settings: LPSEc 200 ng/mL; for IL-6 level: 1 μM; for inhibition at 1 µM: Mus musculus, BV-2, 1 μM, read-out: percentage of IL-6 inhibition
Description: (§1) The anti-inflammatory activity of the STCs was determined in E. coli lipopolysaccharide (LPSEc; Sigma Aldrich, USA)-induced inflammation in NRF2-proficient and NRF2 siRNA-transfected mouse microglial (BV-2) cells. The NRF2 was silenced in BV-2 cells using NRF2 siRNA (Santa Cruz Biotechnology, Dallas, TX, USA) in Opti-MEM transfection medium (Thermo Fisher Scientific, USA) using Lipofectamine^TM LTX reagent with PLUS^TM reagent (Thermo Fisher Scientific, USA) following the manufacturer’s protocol and reported method. The cells (5 × 10^5 cells/well) were allowed to form a monolayer by incubating them for 24 h and then adding LPSEc (200 ng/mL) for 4 h. The STCs (1 µM) were then added and incubated for another 20 h. The nitric oxide (NO) level in cell supernatant was determined using the Griess reagent kit (Thermo Fisher Scientific, USA). The levels of proinflammatory cytokines (IL-1β, IL-6, IFN-γ, and TNF-α) in cell supernatant solutions were determined using commercially available ELISA kits (Abcam, Cambridge, UK). The cell pellets were lysed using Cell Lysis buffer (Thermo Fisher Scientific, Waltham, MA, USA) following the manufacturer’s instructions. The supernatant solution in the wells was replaced with PBS, and cells were detached by scraping, washed with PBS, and centrifuged to collect the cell pellet. The cell pellet was lysed on ice in a cell lysis buffer for half an hour, vortexing at regular intervals. The cell lysate was centrifuged at 15,000 rpm for 15 min at 4 °C. The clear lysate was stored at −80 °C until further use. The protein concentration was determined using Bradford’s assay kit (Thermo Fisher Scientific, USA) following the manufacturer’s instructions. The expression of COX-2, NF-κB p65, NRF2, and HO-1 in cell lysates was determined using commercially available ELISA kits (Abcam, St, Louis, Missouri, USA) following the manufacturer’s protocol. In addition, the thiol content was determined using a thiol quantification assay kit (Abcam, USA).

IFN-γ = IFN-γ ELISA in LPSEc-stimulated BV-2 cells; format: cell-based, mouse; settings: LPSEc 200 ng/mL; for IFN-γ level: 1 μM; for inhibition at 1 µM: Mus musculus, BV-2, 1 μM, read-out: percentage of IFN-γ inhibition
Description: as §1

IL-1β = IL-1β ELISA in LPSEc-stimulated BV-2 cells; format: cell-based, mouse; settings: LPSEc 200 ng/mL; for IL-1β level: 1 μM; for inhibition at 1 µM: Mus musculus, BV-2, 1 μM, read-out: percentage of IL-1β inhibition
Description: as §1

[1] = Liver microsomal stability, rat; format: in vitro ADME; settings: rat liver microsomes, 1 μM (verapamil 0.5 μM)
Description: The liver microsomes of humans, rats, and mice were purchased from Merck (human, #M0567; rat, #M9066; mouse, #M9441). The metabolic stability of 6-shogaol and STCs (1 μM effective concentration; 5 μL) was mixed with liver microsomes (0.5 mg mL^−1; 445 μL) in a microcentrifuge tube. Verapamil (0.5 μM) was used as the positive control. The microsome and compound mixture were shaken on a plate shaker for 5 min to ensure homogeneity. NADPH (1 mM; 50 μL) was added to the mixture to start the metabolic reaction. The reaction mixture was incubated at 37 °C for 0, 3, 6, 15, 30, 45, and 60 min. The mixture (20 μL) was sampled and quenched with 180 μL of acetonitrile with internal standard (Donepezil 50 ng/mL) to terminate the metabolic reaction at each time point. Ultrapure water (80 μL) was added, and contents in the microcentrifuge tubes were centrifuged at 3800 rpm at 4 °C for 10 min. […] Each set of experiments was repeated three times in human, rat, and mouse liver microsomes. The concentration of the compounds versus time was plotted to determine the elimination rate constant (Kel). The intrinsic clearance (Clint) and half-life (t1/2) were calculated using the following equations.

nitric oxide (NO) = experiment: Nitric oxide (Griess) in LPSEc-stimulated BV-2 cells; format: cell-based, mouse; settings: LPSEc 200 ng/mL; for NO production: 1 μM; for inhibition at 1 µM: Mus musculus, BV-2, 1 μM, read-out: percentage of NO inhibition
Description: as §1

GSK-3β = target: T1, GSK-3β (Homo sapiens, UniProt P49841); experiment: GSK-3β kinase ADP-Glo assay; format: biochemical; settings: ATP 25 μM, read-out: IC50, GSK-3β enzyme activity
T1 construct: purchased Promega
Description: The effect of STCs on GSK-3β activity was determined using GSK-3β kinase enzyme (Promega, WI, USA) and ADP-Glo^TM kinase assay (Promega, USA) following the manufacturer’s protocol and reported method. The STCs were dissolved in the kinase buffer to prepare different concentrations (10, 1, 0.1, 0.01, and 0.001 μM). One microliter of the test compounds was added to each well (384 well plate), followed by the addition of 2 μL of GSK-3β kinase (1 ng), 2 μL of the GSK-3β substrate (0.4 μg), and 2 μL of the ATP (25 μM), and incubated for 60 min. Then, 5 μL of ADP-Glo^TM reagent was added and incubated further for 40 min. Then 10 μL of kinase detection reagent was added and incubated for 30 min. The luminescence was recorded using a SpectraMax®L microplate reader (Molecular Devices, San Jose, CA, USA). The IC50 (concentration of the test compound required to produce half-maximal […]) from dose-response curves using non-linear regression analysis using GraphPad Prism (9.5.0; San Diego, CA, USA) software.

KEAP1-NRF2 interaction = target: T2, KEAP1-NRF2 interaction (Homo sapiens, UniProt Q14145); experiment: KEAP1-Nrf2 inhibitor screening, fluorescence polarisation assay; format: binding; settings: KEAP1 Kelch domain, read-out: IC50, NRF2-KEAP1 inhibition
T2 construct: purchased BPS Bioscience
Description: The KEAP1-Nrf2 inhibitor screening assay kit (BPS Bioscience, San Diego, California, USA) was used to determine the effect of STCs in inhibiting KEAP1-NRF2 interaction following the manufacturer’s protocol and our reported method. The STC solutions were diluted with the assay buffer, and 5 μL of the STC solutions were incubated at room temperature for 30 min in the peptide mixture containing 0.5 μL NRF2 peptide (1 μM) and 20 μL KEAP1 (15 ng/μL). The fluorescence polarisation (FP) was measured using a microplate reader at λex 485 nm and λem 530 nm. The following equation was used to determine the per cent KEAP1-NRF2 inhibitory effect of the STCs. Keap1−Nrf2 inhbitory activity %=1−Relative FP of STC/Relative FP of postive control×100

TNF-α = TNF-α ELISA in LPSEc-stimulated BV-2 cells; format: cell-based, mouse; settings: LPSEc 200 ng/mL; for inhibition at 1 µM: Mus musculus, BV-2, 1 μM, read-out: percentage of TNF-α inhibition
Description: as §1

COX-2 = COX-2 ELISA in LPSEc-stimulated BV-2 cell lysates; format: cell-based, mouse; settings: LPSEc 200 ng/mL; for COX-2 level: 1 μM; for inhibition at 1 µM: Mus musculus, BV-2, 1 μM, read-out: percentage of COX-2 inhibition
Description: as §1

NF-κB p65 = NF-κB p65 ELISA in LPSEc-stimulated BV-2 cell lysates; format: cell-based, mouse; settings: LPSEc 200 ng/mL; for NF-κB p65 level: 1 μM; for inhibition at 1 µM: Mus musculus, BV-2, 1 μM, read-out: percent NF-κB inhibition
Description: as §1

[2] = 1 μM, NRF2-proficient BV-2 cells

T1 sequence (P49841 whole entry): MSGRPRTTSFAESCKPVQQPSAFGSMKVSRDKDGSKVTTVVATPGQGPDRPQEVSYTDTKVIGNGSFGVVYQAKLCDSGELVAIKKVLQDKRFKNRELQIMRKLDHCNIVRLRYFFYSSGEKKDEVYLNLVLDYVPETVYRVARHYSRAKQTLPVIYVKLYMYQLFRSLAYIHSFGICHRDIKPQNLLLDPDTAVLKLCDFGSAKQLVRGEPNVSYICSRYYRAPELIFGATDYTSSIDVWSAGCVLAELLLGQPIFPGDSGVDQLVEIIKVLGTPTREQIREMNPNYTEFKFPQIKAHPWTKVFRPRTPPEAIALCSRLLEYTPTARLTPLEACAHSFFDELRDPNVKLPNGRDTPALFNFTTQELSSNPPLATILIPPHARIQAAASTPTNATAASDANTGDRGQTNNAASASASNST
T2 sequence (Q14145 2-624 limits assumed): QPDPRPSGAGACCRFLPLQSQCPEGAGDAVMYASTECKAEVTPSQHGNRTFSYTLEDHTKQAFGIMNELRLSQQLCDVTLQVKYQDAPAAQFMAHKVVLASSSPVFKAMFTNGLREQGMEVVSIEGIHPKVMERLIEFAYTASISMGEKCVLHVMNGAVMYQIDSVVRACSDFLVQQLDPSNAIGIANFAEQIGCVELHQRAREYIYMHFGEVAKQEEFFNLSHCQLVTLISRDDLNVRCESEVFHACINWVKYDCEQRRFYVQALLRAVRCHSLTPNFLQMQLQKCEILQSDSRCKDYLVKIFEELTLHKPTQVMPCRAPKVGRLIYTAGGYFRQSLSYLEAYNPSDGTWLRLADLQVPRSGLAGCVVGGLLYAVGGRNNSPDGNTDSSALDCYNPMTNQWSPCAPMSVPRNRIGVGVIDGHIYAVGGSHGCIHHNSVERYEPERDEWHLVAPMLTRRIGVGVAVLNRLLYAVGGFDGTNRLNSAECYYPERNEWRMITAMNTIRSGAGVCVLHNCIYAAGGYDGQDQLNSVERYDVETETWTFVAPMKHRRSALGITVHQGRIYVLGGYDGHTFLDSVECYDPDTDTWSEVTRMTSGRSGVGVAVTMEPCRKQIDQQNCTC

| SMILES | IL-6 level (IL-6; NRF2-proficient BV-2 cells) [pg/mL] | IL-6 level (IL-6; NRF2-silenced BV-2 cells) [pg/mL] | inhibition at 1 µM (IL-6; NRF2-proficient BV-2 cells) [%] | inhibition at 1 µM (IL-6; NRF2-silenced BV-2 cells) [%] | IFN-γ level (IFN-γ; NRF2-proficient BV-2 cells) [pg/mL] | IFN-γ level (IFN-γ; NRF2-silenced BV-2 cells) [pg/mL] | inhibition at 1 µM (IFN-γ; NRF2-proficient BV-2 cells) [%] | inhibition at 1 µM (IFN-γ; NRF2-silenced BV-2 cells) [%] | IL-1β level (IL-1β; NRF2-silenced BV-2 cells) [pg/mL] | inhibition at 1 µM (IL-1β; NRF2-proficient BV-2 cells) [%] | Clint [1] [mL/min/g liver] | half-life at 1 μM [1] [min] | NO production (nitric oxide (NO); NRF2-proficient BV-2 cells) [µM] | IC50 (GSK-3β) [nM] | IC50 (KEAP1-NRF2 interaction) [nM] | TNF-α level (TNF-α; [2]) [pg/mL] | TNF-α level (TNF-α; 1 μM, NRF2-silenced BV-2 cells) [pg/mL] | COX-2 level (COX-2; NRF2-silenced BV-2 cells) [ng/mL] | NF-κB p65 level (NF-κB p65; NRF2-proficient BV-2 cells) [ng/mL] | NF-κB p65 level (NF-κB p65; NRF2-silenced BV-2 cells) [ng/mL] | further results |
| --- | --- | --- | --- | --- | --- | --- | --- | --- | --- | --- | --- | --- | --- | --- | --- | --- | --- | --- | --- | --- | --- |
| COc1cc(CCC(=O)/C=C/c2cc(-c3ccccc3)cs2)ccc1O [STC5, (E)-5-(4-Hydroxy-3-methoxyphenyl)-1-(4-phenylthiophen-2-yl)pent-1-en-3-one] | 212.33 ± 6.11 | 748.67 ± 8.33 | 77.1 | 17.7 | 14.34 ± 1.10 | 31.19 ± 0.85 | 42.7 | 25.6 | 72.50 ± 1.32 | 71.4 | 7.22 ± 1.23 | 10.1 | 2.58 ± 0.04 | 50 ± 1 | 40 ± 1 | 850.00 ± 77.90 | 2581.00 ± 51.00 | 3.48 ± 0.09 | 41.5 ± 0.79 | 86.3 ± 1.03 | inhibition at 1 µM (IL-1β; NRF2-silenced BV-2 cells): 22.3%; inhibition at 1 µM (nitric oxide (NO); NRF2-proficient BV-2 cells): 75.5%; inhibition at 1 µM (nitric oxide (NO); NRF2-silenced BV-2 cells): 64.8%; inhibition at 1 µM (TNF-α; NRF2-proficient BV-2 cells): 70.8%; inhibition at 1 µM (TNF-α; NRF2-silenced BV-2 cells): 17%; inhibition at 1 µM (COX-2; NRF2-proficient BV-2 cells): 76%; inhibition at 1 µM (COX-2; NRF2-silenced BV-2 cells): 49.1%; inhibition at 1 µM (NF-κB p65; NRF2-proficient BV-2 cells): 67.1%; inhibition at 1 µM (NF-κB p65; NRF2-silenced BV-2 cells): 37.7% |
| CCCCC/C=C/C(=O)CCc1ccc(O)c(OC)c1 [6-shogaol, reference compound] | 435.67 ± 7.77 | 852.67 ± 5.69 | 53 | 6.27 | 25.75 ± 0.72 | 37.52 ± 1.01 | 36.3 | 10.5 | 88.57 ± 0.55 | 53.7 | 11.51 ± 1.37 | 6.32 | 6.32 ± 0.03 | 420 ± 130 | 830 ± 100 | 1734.00 ± 51.00 | 3113.00 ± 55.34 | 6.03 ± 0.21 | 70.54 ± 5.04 | 132.17 ± 4.52 | IL-1β level (IL-1β; NRF2-proficient BV-2 cells): 43.30 ± 0.62 pg/mL; inhibition at 1 µM (IL-1β; NRF2-silenced BV-2 cells): 5%; NO production (nitric oxide (NO); NRF2-silenced BV-2 cells): 8.56 ± 0.36 µM; inhibition at 1 µM (nitric oxide (NO); NRF2-proficient BV-2 cells): 40%; inhibition at 1 µM (nitric oxide (NO); NRF2-silenced BV-2 cells): 24.7%; percentage of TNF-α inhibition (TNF-α; 1 μM, NRF2-silenced BV-2 cells): no inhibition; inhibition at 1 µM (TNF-α; NRF2-proficient BV-2 cells): 40.4%; COX-2 level (COX-2; NRF2-proficient BV-2 cells): 4.30 ± 0.10 ng/mL; inhibition at 1 µM (COX-2; NRF2-proficient BV-2 cells): 35.5%; inhibition at 1 µM (COX-2; NRF2-silenced BV-2 cells): 11.7%; inhibition at 1 µM (NF-κB p65; NRF2-proficient BV-2 cells): 44%; inhibition at 1 µM (NF-κB p65; NRF2-silenced BV-2 cells): 4.61% |
| COc1cc(CCC(=O)/C=C/c2ccc([N+](=O)[O-])s2)ccc1O [STC8, (E)-5-(4-Hydroxy-3-methoxyphenyl)-1-(5-nitrothiophen-2-yl)pent-1-en-3-one] | 431.667 ± 3.06 | 846.67 ± 11.68 |  |  | 24.63 ± 0.64 | 37.86 ± 1.69 |  |  | 77.33 ± 0.93 |  | 10.57 ± 1.48 | 6.88 | 6.38 ± 0.04 | 870 ± 90 | 900 ± 50 | 1751.00 ± 77.90 | 3130.33 ± 27.47 | 4.47 ± 0.15 | 75.6 ± 5.04 | 131.57 ± 0.15 | IL-1β level (IL-1β; NRF2-proficient BV-2 cells): 39.93 ± 0.74 pg/mL; NO production (nitric oxide (NO); NRF2-silenced BV-2 cells): 8.86 ± 0.38 µM; COX-2 level (COX-2; NRF2-proficient BV-2 cells): 4.10 ± 0.10 ng/mL |
